# From PubChem BioAssay AID2060900 (Molecular Pharmacology Branch, DTP, NCI, 2025)
# Test system: 521955-158-R2-J5-PDC complex spheroids, viability
# Test: Anticancer human tumor 521955-158-R2-J5-PDC patient-derived pancreatic carcinoma cell line growth inhibition [RAS]
# Conditions: for IC50: curve of first compound; for viability, T/C: stronger effect = lower value
# Procedure, shortened: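 Agents were tested in combination matrices in half-log decrements from a top concentration at or near clinical Cmax (10 microM if undetermined). Targets were multi-cell spheroids of tumour lines plus HUVEC and MSC stromal cells.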
# 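Also: compound exposure lasted seven days before the viability read.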
# 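For viability, T/C in this document: spheroids also contain HUVEC endothelial cells and mesenchymal stem cells as stroma.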
smiles,measurement,setting,value
CC(C)n1nc(-c2ccc3oc(N)nc3c2)c2c(N)ncnc21 + CCn1c(-c2cccnc2C(C)OC)c2c3cc(ccc31)N1CCOC(CC(NC(=O)C(C(C)C)N(C)C(=O)C3(F)CCN(C(=O)C#CC(C)(C)N(C)C)CC3)C(=O)N3CCCC(N3)C(=O)OCC(C)(C)C2)C1,IC50,second compound 0.000949 µM,21 nM
same,IC50,second compound 0.003 µM,20 nM
same,IC50,second compound 0.00949 µM,23.6 nM
same,IC50,second compound 0.03 µM,27.1 nM
same,IC50,second compound 0.0949 µM,19.2 nM
same,IC50,second compound 0.3 µM,13.5 nM
same,"viability, T/C","second compound 0.000949 µM, first compound 0.000316 µM",96.7%
same,"viability, T/C","second compound 0.000949 µM, first compound 0.001 µM",77.1%
same,"viability, T/C","second compound 0.000949 µM, first compound 0.00316 µM",83.1%
same,"viability, T/C","second compound 0.000949 µM, first compound 0.01 µM",61.4%
same,"viability, T/C","second compound 0.000949 µM, first compound 0.0316 µM",41.8%
same,"viability, T/C","second compound 0.000949 µM, first compound 0.1 µM",36.5%
same,"viability, T/C","second compound 0.003 µM, first compound 0.000316 µM",82%
same,"viability, T/C","second compound 0.003 µM, first compound 0.001 µM",91%
same,"viability, T/C","second compound 0.003 µM, first compound 0.00316 µM",91.4%
same,"viability, T/C","second compound 0.003 µM, first compound 0.01 µM",64.8%
same,"viability, T/C","second compound 0.003 µM, first compound 0.0316 µM",41.5%
same,"viability, T/C","second compound 0.003 µM, first compound 0.1 µM",30.1%
same,"viability, T/C","second compound 0.00949 µM, first compound 0.000316 µM",93.3%
same,"viability, T/C","second compound 0.00949 µM, first compound 0.001 µM",85.7%
same,"viability, T/C","second compound 0.00949 µM, first compound 0.00316 µM",83.6%
same,"viability, T/C","second compound 0.00949 µM, first compound 0.01 µM",70.3%
same,"viability, T/C","second compound 0.00949 µM, first compound 0.0316 µM",42.5%
same,"viability, T/C","second compound 0.00949 µM, first compound 0.1 µM",29.2%
same,"viability, T/C","second compound 0.03 µM, first compound 0.000316 µM",89.2%
same,"viability, T/C","second compound 0.03 µM, first compound 0.001 µM",101%
same,"viability, T/C","second compound 0.03 µM, first compound 0.00316 µM",90.4%
same,"viability, T/C","second compound 0.03 µM, first compound 0.01 µM",69.8%
same,"viability, T/C","second compound 0.03 µM, first compound 0.0316 µM",48.6%
same,"viability, T/C","second compound 0.03 µM, first compound 0.1 µM",34.2%
same,"viability, T/C","second compound 0.0949 µM, first compound 0.000316 µM",73.5%
same,"viability, T/C","second compound 0.0949 µM, first compound 0.001 µM",83.1%
same,"viability, T/C","second compound 0.0949 µM, first compound 0.00316 µM",86.2%
same,"viability, T/C","second compound 0.0949 µM, first compound 0.01 µM",63.3%
same,"viability, T/C","second compound 0.0949 µM, first compound 0.0316 µM",39.9%
same,"viability, T/C","second compound 0.0949 µM, first compound 0.1 µM",28.8%
same,"viability, T/C","second compound 0.3 µM, first compound 0.000316 µM",73.9%
same,"viability, T/C","second compound 0.3 µM, first compound 0.001 µM",70.3%
same,"viability, T/C","second compound 0.3 µM, first compound 0.00316 µM",85.2%
same,"viability, T/C","second compound 0.3 µM, first compound 0.01 µM",55.2%
same,"viability, T/C","second compound 0.3 µM, first compound 0.0316 µM",40.7%
same,"viability, T/C","second compound 0.3 µM, first compound 0.1 µM",30%
CC(C)NCC(C(=O)N1CCN(c2ncnc3c2C(C)CC3O)CC1)c1ccc(Cl)cc1 (centres undefined) + C#Cc1c(F)ccc2cc(O)cc(-c3ncc4c(N5CC6CCC(C5)N6)nc(OCC56CCCN5CC(F)C6)nc4c3F)c12,IC50,second compound 0.0316 µM,49.1 nM
same,IC50,second compound 0.1 µM,< 31.6 nM
same,IC50,second compound 0.316 µM,< 31.6 nM
same,IC50,second compound 1 µM,< 31.6 nM
same,IC50,second compound 3.16 µM,< 31.6 nM
same,IC50,second compound 10 µM,< 31.6 nM
same,"viability, T/C","second compound 0.0316 µM, first compound 0.0316 µM",55.1%
same,"viability, T/C","second compound 0.0316 µM, first compound 0.1 µM",40%
same,"viability, T/C","second compound 0.0316 µM, first compound 0.316 µM",36.9%
same,"viability, T/C","second compound 0.0316 µM, first compound 1 µM",15.6%
same,"viability, T/C","second compound 0.0316 µM, first compound 3.16 µM",10.7%
same,"viability, T/C","second compound 0.0316 µM, first compound 10 µM",10.4%
same,"viability, T/C","second compound 0.1 µM, first compound 0.0316 µM",45.7%
same,"viability, T/C","second compound 0.1 µM, first compound 0.1 µM",54.2%
same,"viability, T/C","second compound 0.1 µM, first compound 0.316 µM",26.8%
same,"viability, T/C","second compound 0.1 µM, first compound 1 µM",13.4%
same,"viability, T/C","second compound 0.1 µM, first compound 3.16 µM",8.3%
same,"viability, T/C","second compound 0.1 µM, first compound 10 µM",8.31%
same,"viability, T/C","second compound 0.316 µM, first compound 0.0316 µM",43.6%
same,"viability, T/C","second compound 0.316 µM, first compound 0.1 µM",43.2%
same,"viability, T/C","second compound 0.316 µM, first compound 0.316 µM",29.1%
same,"viability, T/C","second compound 0.316 µM, first compound 1 µM",11.7%
same,"viability, T/C","second compound 0.316 µM, first compound 3.16 µM",7.83%
same,"viability, T/C","second compound 0.316 µM, first compound 10 µM",6.31%
same,"viability, T/C","second compound 1 µM, first compound 0.0316 µM",43.8%
same,"viability, T/C","second compound 1 µM, first compound 0.1 µM",45.2%
same,"viability, T/C","second compound 1 µM, first compound 0.316 µM",26.9%
same,"viability, T/C","second compound 1 µM, first compound 1 µM",12.7%
same,"viability, T/C","second compound 1 µM, first compound 3.16 µM",6.2%
same,"viability, T/C","second compound 1 µM, first compound 10 µM",4.69%
same,"viability, T/C","second compound 3.16 µM, first compound 0.0316 µM",43.4%
same,"viability, T/C","second compound 3.16 µM, first compound 0.1 µM",38.2%
same,"viability, T/C","second compound 3.16 µM, first compound 0.316 µM",22%
same,"viability, T/C","second compound 3.16 µM, first compound 1 µM",8.28%
same,"viability, T/C","second compound 3.16 µM, first compound 3.16 µM",5.14%
same,"viability, T/C","second compound 3.16 µM, first compound 10 µM",3.32%
same,"viability, T/C","second compound 10 µM, first compound 0.0316 µM",32.3%
same,"viability, T/C","second compound 10 µM, first compound 0.1 µM",27%
same,"viability, T/C","second compound 10 µM, first compound 0.316 µM",15.1%
same,"viability, T/C","second compound 10 µM, first compound 1 µM",7.44%
same,"viability, T/C","second compound 10 µM, first compound 3.16 µM",3.67%
same,"viability, T/C","second compound 10 µM, first compound 10 µM",1.98%
